Experimental data reported in paper PMC7180948, “New Insights into 4-Anilinoquinazolines as Inhibitors of Cardiac Troponin I–Interacting Kinase (TNNi3K)” (Molecules, 2020).

Tests used:
Test in all cases: biochemical
Parameters in all cases: KINOMEscan competition binding panel (Eurofins DiscoverX), single concentration, percent inhibition
Details in all cases: read-out: 15 at 1 µM % inhibition
FLT3(R834Q) = FLT3(R834Q) (Homo sapiens, UniProt P36888, R834Q)
Method in brief: (§1)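 Values come from single-concentration (1 µM) profiling in the Eurofins DiscoverX KINOMEscan competition-binding platform, which covers over 400 kinases.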

VEGFR2 = molecular target: T1, VEGFR2 (Homo sapiens, UniProt P35968)
T1 construct: gene KDR
Method in brief: as §1

VRK2 = VRK2 (Homo sapiens, UniProt Q86Y07)
Method in brief: as §1

AKT2 = AKT2 (Homo sapiens, UniProt P31751)
Method in brief: as §1

PDGFRB = PDGFRB (Homo sapiens, UniProt P09619)
Method in brief: as §1

PIP5K2C = molecular target: T2, PIP5K2C (Homo sapiens, UniProt Q8TBX8)
T2 construct: gene PIP4K2C
Method in brief: as §1

MARK2 = MARK2 (Homo sapiens, UniProt Q7KZI7)
Method in brief: as §1

TRKB = molecular target: T3, TRKB (Homo sapiens, UniProt Q16620)
T3 construct: gene NTRK2
Method in brief: as §1

PHKG1 = PHKG1 (Homo sapiens, UniProt Q16816)
Method in brief: as §1

[1] = molecular target: T4, JAK3(JH1domain-catalytic) (Homo sapiens, UniProt P52333)
T4 construct: JH1domain-catalytic
Method in brief: as §1

EPHA1 = EPHA1 (Homo sapiens, UniProt P21709)
Method in brief: as §1

[2] = molecular target: EGFR(L747-E749del, A750P) (Homo sapiens, UniProt P00533, A750P/DEL747-749)
Method in brief: as §1

ERN1 = ERN1 (Homo sapiens, UniProt O75460)
Method in brief: as §1

CAMKK1 = CAMKK1 (Homo sapiens, UniProt Q8N5S9)
Method in brief: as §1

MEK2 = molecular target: T5, MEK2 (Homo sapiens, UniProt P36507)
T5 construct: gene MAP2K2
Method in brief: as §1

NDR2 = molecular target: T6, NDR2 (Homo sapiens, UniProt Q9Y2H1)
T6 construct: gene STK38L
Method in brief: as §1

CDK3 = CDK3 (Homo sapiens, UniProt Q00526)
Method in brief: as §1

EIF2AK1 = EIF2AK1 (Homo sapiens, UniProt Q9BQI3)
Method in brief: as §1

CLK4 = CLK4 (Homo sapiens, UniProt Q9HAZ1)
Method in brief: as §1

ICK = molecular target: T7, ICK (Homo sapiens, UniProt Q9UPZ9)
T7 construct: gene CILK1
Method in brief: as §1

CSNK2A2 = CSNK2A2 (Homo sapiens, UniProt P19784)
Method in brief: as §1

[3] = molecular target: T8, RSK2(Kin.Dom.2-C-terminal) (Homo sapiens, UniProt P51812)
T8 construct: gene RPS6KA3; Kin.Dom.2-C-terminal
Method in brief: as §1

CAMK2B = CAMK2B (Homo sapiens, UniProt Q13554)
Method in brief: as §1

CDKL1 = CDKL1 (Homo sapiens, UniProt Q00532)
Method in brief: as §1

Sequence of CSNK2A2 (P19784 whole entry): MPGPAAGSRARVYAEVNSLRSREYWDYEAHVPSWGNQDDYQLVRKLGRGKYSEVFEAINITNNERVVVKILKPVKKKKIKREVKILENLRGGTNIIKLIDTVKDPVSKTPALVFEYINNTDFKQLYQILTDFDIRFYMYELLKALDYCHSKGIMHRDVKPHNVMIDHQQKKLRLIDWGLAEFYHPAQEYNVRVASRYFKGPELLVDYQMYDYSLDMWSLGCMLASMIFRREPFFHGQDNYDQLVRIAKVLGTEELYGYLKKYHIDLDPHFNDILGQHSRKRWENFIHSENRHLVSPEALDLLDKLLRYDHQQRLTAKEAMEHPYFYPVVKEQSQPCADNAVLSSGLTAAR
Sequence of CLK4 (Q9HAZ1 whole entry): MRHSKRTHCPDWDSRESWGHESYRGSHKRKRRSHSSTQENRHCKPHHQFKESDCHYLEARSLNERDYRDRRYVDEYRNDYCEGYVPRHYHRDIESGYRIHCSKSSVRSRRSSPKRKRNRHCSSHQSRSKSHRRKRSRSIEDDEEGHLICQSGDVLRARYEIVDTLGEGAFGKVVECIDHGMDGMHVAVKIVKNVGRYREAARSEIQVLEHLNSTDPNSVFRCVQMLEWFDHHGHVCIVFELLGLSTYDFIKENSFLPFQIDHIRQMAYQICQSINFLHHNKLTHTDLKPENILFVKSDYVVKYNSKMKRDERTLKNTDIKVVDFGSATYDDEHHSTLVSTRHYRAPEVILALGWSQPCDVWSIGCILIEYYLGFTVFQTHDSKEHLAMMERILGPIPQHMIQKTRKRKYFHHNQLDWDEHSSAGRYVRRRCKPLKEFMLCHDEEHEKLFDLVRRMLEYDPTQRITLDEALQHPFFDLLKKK
Sequence of CAMK2B (Q13554 whole entry): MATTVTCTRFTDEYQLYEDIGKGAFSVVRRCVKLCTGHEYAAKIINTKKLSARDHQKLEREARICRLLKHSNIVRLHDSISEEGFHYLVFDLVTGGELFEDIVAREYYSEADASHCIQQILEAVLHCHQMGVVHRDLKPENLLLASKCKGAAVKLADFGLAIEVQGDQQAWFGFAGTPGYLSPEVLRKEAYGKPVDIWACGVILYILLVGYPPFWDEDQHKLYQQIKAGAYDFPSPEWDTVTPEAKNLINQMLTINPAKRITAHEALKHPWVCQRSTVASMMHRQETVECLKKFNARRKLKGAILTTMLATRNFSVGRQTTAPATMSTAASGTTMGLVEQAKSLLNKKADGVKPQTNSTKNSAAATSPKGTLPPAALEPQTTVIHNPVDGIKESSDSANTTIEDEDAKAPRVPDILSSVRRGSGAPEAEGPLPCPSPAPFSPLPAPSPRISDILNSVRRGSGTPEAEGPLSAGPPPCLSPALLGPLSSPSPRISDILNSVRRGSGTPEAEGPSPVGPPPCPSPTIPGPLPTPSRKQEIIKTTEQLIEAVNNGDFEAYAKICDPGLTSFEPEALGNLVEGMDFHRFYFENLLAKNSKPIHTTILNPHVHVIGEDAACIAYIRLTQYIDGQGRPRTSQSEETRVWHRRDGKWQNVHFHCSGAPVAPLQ
T3 sequence (Q16620 whole entry): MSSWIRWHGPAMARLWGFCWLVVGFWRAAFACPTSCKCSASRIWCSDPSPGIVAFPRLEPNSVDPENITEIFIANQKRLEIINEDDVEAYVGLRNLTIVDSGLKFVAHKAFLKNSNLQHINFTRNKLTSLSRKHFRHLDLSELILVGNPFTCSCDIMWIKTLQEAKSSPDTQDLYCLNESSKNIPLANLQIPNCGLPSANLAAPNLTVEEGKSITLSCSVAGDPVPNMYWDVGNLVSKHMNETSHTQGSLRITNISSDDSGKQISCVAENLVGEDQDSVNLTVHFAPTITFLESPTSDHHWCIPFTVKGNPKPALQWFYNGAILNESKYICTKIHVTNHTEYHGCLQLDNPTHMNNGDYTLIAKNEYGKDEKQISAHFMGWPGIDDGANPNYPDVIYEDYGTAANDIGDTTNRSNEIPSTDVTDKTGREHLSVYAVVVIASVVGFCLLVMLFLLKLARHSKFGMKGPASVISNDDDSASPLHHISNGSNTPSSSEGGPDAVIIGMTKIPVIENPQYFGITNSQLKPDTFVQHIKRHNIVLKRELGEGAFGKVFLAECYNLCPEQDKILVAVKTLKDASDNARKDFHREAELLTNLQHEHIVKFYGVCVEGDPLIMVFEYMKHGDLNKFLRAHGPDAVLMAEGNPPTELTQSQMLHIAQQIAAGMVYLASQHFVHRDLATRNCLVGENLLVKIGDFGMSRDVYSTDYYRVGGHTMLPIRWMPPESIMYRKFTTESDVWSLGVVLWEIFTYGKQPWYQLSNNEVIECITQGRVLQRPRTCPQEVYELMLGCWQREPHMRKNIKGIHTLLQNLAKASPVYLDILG
T5 sequence (P36507 whole entry): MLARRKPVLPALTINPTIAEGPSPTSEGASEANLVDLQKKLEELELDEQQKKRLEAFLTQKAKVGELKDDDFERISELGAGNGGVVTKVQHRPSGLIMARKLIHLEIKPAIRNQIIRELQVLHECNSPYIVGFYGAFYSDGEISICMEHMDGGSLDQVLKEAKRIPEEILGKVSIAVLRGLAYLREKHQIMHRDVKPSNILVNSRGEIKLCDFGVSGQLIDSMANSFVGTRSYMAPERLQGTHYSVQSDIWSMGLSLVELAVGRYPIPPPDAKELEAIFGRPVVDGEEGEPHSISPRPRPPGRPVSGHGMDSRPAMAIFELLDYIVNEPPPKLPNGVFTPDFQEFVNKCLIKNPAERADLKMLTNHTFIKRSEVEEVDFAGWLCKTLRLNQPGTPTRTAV
T2 sequence (Q8TBX8 whole entry): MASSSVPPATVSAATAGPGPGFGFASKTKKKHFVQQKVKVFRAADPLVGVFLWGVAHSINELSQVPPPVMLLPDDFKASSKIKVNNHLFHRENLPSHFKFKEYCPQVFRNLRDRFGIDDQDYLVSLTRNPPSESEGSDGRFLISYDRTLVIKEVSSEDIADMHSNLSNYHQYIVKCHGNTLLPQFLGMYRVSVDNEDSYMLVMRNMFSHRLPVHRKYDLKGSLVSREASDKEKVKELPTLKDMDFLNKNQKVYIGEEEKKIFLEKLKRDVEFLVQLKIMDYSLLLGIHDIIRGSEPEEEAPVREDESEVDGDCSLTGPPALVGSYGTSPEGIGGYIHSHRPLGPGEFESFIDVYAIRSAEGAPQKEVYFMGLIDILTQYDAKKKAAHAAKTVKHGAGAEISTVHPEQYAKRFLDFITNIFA
Sequence of CDK3 (Q00526 whole entry): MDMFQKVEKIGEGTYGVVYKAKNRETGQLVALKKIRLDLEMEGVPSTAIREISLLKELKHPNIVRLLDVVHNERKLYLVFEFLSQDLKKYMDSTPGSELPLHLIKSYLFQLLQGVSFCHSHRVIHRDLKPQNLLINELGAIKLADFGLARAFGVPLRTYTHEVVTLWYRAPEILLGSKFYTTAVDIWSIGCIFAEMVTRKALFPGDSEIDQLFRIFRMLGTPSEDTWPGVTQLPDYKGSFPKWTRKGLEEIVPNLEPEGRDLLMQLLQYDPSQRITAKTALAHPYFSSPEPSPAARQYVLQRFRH
Sequence of PHKG1 (Q16816 whole entry): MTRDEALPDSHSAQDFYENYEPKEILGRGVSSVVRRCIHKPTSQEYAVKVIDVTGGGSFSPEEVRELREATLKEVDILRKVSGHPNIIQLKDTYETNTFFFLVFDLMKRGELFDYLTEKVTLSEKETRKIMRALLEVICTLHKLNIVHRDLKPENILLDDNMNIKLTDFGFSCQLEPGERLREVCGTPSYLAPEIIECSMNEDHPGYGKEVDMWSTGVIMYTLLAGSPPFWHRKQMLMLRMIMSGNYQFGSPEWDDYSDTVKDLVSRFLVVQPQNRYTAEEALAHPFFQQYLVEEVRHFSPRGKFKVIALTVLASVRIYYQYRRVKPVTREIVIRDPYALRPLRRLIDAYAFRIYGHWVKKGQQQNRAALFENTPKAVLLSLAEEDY
Sequence of EPHA1 (P21709 whole entry): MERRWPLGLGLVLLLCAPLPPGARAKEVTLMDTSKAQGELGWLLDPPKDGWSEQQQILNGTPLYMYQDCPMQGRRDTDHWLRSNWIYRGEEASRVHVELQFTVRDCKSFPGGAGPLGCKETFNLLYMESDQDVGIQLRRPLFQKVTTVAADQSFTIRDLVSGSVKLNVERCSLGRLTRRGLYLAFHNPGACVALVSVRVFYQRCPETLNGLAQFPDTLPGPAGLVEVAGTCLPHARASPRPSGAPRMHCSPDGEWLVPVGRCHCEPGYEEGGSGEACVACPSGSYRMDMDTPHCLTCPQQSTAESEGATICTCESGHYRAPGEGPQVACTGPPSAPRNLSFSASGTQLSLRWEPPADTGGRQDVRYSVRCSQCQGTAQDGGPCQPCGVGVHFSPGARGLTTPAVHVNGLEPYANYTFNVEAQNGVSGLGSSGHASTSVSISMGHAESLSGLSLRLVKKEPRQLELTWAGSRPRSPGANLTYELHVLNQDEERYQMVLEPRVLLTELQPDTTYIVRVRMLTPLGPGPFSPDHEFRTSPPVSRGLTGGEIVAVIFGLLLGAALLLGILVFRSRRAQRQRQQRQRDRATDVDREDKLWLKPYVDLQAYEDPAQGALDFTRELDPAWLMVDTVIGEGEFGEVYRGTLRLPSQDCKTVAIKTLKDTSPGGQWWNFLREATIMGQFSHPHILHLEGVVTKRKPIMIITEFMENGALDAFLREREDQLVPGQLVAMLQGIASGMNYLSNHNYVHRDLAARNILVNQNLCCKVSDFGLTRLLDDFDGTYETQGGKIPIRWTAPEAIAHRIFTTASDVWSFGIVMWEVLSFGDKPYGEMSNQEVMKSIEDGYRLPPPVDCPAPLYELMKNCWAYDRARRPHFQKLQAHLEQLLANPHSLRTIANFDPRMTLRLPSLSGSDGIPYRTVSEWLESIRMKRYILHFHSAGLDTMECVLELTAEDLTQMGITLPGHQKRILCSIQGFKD

inhibition at 1 µM (FLT3(R834Q)): 32%
inhibition at 1 µM (VEGFR2): 12%
inhibition at 1 µM (VRK2): 12%
inhibition at 1 µM (AKT2): 0%
inhibition at 1 µM (PDGFRB): 10%
inhibition at 1 µM (PIP5K2C): 18%
inhibition at 1 µM (MARK2): 0%
inhibition at 1 µM (TRKB): 22%
inhibition at 1 µM (PHKG1): 0%
inhibition at 1 µM [1]: 10%
inhibition at 1 µM (EPHA1): 0%
inhibition at 1 µM [2]: 0%
inhibition at 1 µM (ERN1): 3%
inhibition at 1 µM (CAMKK1): 2%
inhibition at 1 µM (MEK2): 10%
inhibition at 1 µM (NDR2): 6%
inhibition at 1 µM (CDK3): 56%
inhibition at 1 µM (EIF2AK1): 4%
inhibition at 1 µM (CLK4): 5%
inhibition at 1 µM (ICK): 12%
inhibition at 1 µM (CSNK2A2): 14%
inhibition at 1 µM [3]: 16%
inhibition at 1 µM (CAMK2B): 0%
inhibition at 1 µM (CDKL1): 2%
SMILES: CNS(=O)(=O)c1ccc(N(C)C)c(Nc2nc(C)nc3cc(OC)c(OC)cc23)c1 [compound 15, 3-((6,7-dimethoxy-2-methylquinazolin-4-yl)amino)-4-(dimethylamino)-N-methylbenzenesulfonamide]
